# Source: the OligoGym collection
# Several values for one entry are separate records, joined by “and”; a condition that tells them apart may be missing. Identical values can stand only once. After the bases stand the sugars from the 5' end (letter, count) and the backbone: PS all phosphorothioate, else s phosphorothioate and o phosphodiester by linkage. Methylation of C is not given here. e = 2'-O-(2-methoxyethyl) (MOE); k = constrained ethyl (cEt); d = 2'-deoxy (DNA)
# Target: APOL1
# Conditions: ASO
Sequence,"target mRNA inhibition (A431, 2 µM) [%]","target mRNA inhibition (A431, 0.0156 µM) [%]","target mRNA inhibition (A431, 0.0625 µM)","target mRNA inhibition (A431, 0.25 µM)","target mRNA inhibition (A431, 1 µM)","target mRNA inhibition (A431, 0.04 µM) [%]"
"GTTTTGTAAGTGCAAC (sugars kkddddkekekddddd, PS)",88,–,–,–,–,–
"CGTCAATATATTCTTT (sugars kkddddkekekkdddd, PS)",95,3,36%,70%,88%,–
"TGTCTTGCAAGGTTGT (sugars k4 d9 k3, PS)",–,–,57%,73%,84%,–
"AAGTATTGCCAGCTAA (sugars kkddddkekekddddd, PS)",62,–,–,–,–,–
"AATTATGGAATTGCAG (sugars kkddddkekekkdddd, PS)",35,–,–,–,–,–
"TGTGTTTAGGCATTCA (sugars k4 d9 k3, PS)",–,–,–,61% and 86%,65% and 86%,–
"CTTTATACCAGTGTCT (sugars kdddddkekekddddd, PS)",89,–,–,–,–,–
"TTATATTTGATCCTCA (sugars kkddddkekekkdddd, PS)",69,–,–,–,–,–
"ACACATCATTGGGTTA (sugars k3 d4 k3 e1 d5, PS)",59,–,–,–,–,–
"GTTATGAAATTATTGG (sugars kkkddddkdkdkdddd, PS)",91,–,–,–,–,–
"CATTCAGAATTTCCAC (sugars kdddddkekekddddd, PS)",67,–,–,–,–,–
"CACATCATTGGGTTAT (sugars kkddddkdkdkddddd, PS)",79,–,–,–,–,–
"GACTTGTTTTATGGAG (sugars k4 d9 k3, PS)",–,–,75%,88%,92%,–
"CCAGCAAAGACAAGAA (sugars k4 d9 k3, PS)",–,–,9% and 0%,49% and 30%,64% and 55% and 50%,–
"GTGAGTATTGTTTTTG (sugars kkddddkekekddddd, PS)",88,–,–,–,–,–
"TTTAGAAAGGACACGG (sugars k4 d9 k3, PS)",–,–,42%,73%,90%,–
"GGACATTGAACCTGGG (sugars k4 d9 k3, PS)",–,–,50%,78%,86%,–
"GAAGATTGGCTCTGGC (sugars kkddddkdkdkddddd, PS)",79,–,–,–,–,–
"AAGTATTGCCAGCTAA (sugars kkkddddkekeddddd, PS)",63,–,–,–,–,–
"GCGATTGTCTTGTTTT (sugars k4 d9 k3, PS)",–,–,64% and 78%,87% and 89%,93%,–
"GCATTCAGAATTTCCA (sugars k2 d4 e3 k2 d5, PS)",98,39,72%,91%,97%,–
"TGTTTACTTACCGGGT (sugars k4 d9 k3, PS)",–,–,60% and 83%,86% and 91%,91% and 93%,–
"CTTTAAACTCAGGTGA (sugars kdddddkekekddddd, PS)",77,–,–,–,–,–
"ACACATCATTGGGTTA (sugars kddddkekekeddddd, PS)",36,–,–,–,–,–
"CTAATTTTCTGACTGT (sugars k3 d4 k3 e1 d5, PS)",99,35,69%,88%,99% and 96%,59
"GAGTATTGTTTTTGTG (sugars k2 d4 e3 k2 d5, PS)",97,38,72%,91%,96%,–
"CTTTAAACTCAGGTGA (sugars kkddddkekekddddd, PS)",82,–,–,–,–,–

Sequence,"target mRNA inhibition (A431, 2 µM) [%]","target mRNA inhibition (A431, 0.0156 µM) [%]","target mRNA inhibition (A431, 0.0625 µM)","target mRNA inhibition (A431, 0.25 µM)","target mRNA inhibition (A431, 1 µM)","target mRNA inhibition (A431, 0.04 µM) [%]"
"CTTGTTTTATGGAGTC (sugars k4 d9 k3, PS)",–,–,85% and 91%,97%,99%,–
"GTTATATTTGATCCTC (sugars kkkddddkekeddddd, PS)",98,32,65%,88%,96%,–
"AGATTGGCTCAGTGAC (sugars k4 d9 k3, PS)",–,–,44% and 27%,70% and 52%,87% and 76%,–
"ATATCAGATGGGTACT (sugars kkkddddkekekdddd, PS)",28,–,–,–,–,–
"GTAAGTATTGCCAGCT (sugars kkddddekekeddddd, PS)",69,–,–,–,–,–
"GTTATATTTGATCCTC (sugars kekddddeekkddddd, PS)",99,37,71%,91%,98%,31
"CCACATTTGAGATTAT (sugars k4 d9 k3, PS)",–,–,37%,72%,90%,–
"TGTTTAGGCATTCAGA (sugars k4 d9 k3, PS)",–,–,59% and 37%,–,86% and 64%,–
"CGTCAATATATTCTTT (sugars kddddkekekeddddd, PS)",96,0,46%,78%,90%,–
"AGTTTTGTAAGTGCAA (sugars k2 d4 e4 k2 d4, PS)",94,4,23%,80%,91%,–
"CTTTATACCAGTGTCT (sugars kkkddddkekeddddd, PS)",94,–,–,–,–,–
"GGCCGTGTCACCCTAA (sugars k4 d9 k3, PS)",–,–,51%,45%,52%,–
"AGTATTGTTTTTGTGG (sugars kkddddkekekddddd, PS)",75,–,–,–,–,–
"ATTCAGAATTTCCACT (sugars kkdddddkekeddddd, PS)",88,–,–,–,–,–
"GAGTATTGTTTTTGTG (sugars kddddkekekeddddd, PS)",94,–,–,–,–,–
"GTTCAAAAGCAGCATT (sugars k3 d5 k3 d5, PS)",90,–,–,–,–,–
"CAGTTTTGTAAGTGCA (sugars kkddddkekekddddd, PS)",91,–,–,–,–,–
"TTTATACCAGTGTCTT (sugars kkddddkekekddddd, PS)",89,–,–,–,–,–
"GTATTTCTTGATGTGG (sugars kkkddddkekekdddd, PS)",73,–,–,–,–,–
"GTAAGTGCTTTGATTC (sugars k4 d9 k3, PS)",–,–,64%,83%,92%,–
"ATGCGGTACTGACTGA (sugars k4 d9 k3, PS)",–,–,49%,69%,88%,–
"TATTCTCATGGTACAG (sugars kkkddddkekeddddd, PS)",68,–,–,–,–,–
"AGCAGCCACGAATCCG (sugars k4 d9 k3, PS)",–,–,40%,66%,63%,–
"ATCAGATGGGTACTTC (sugars kkddddkekekddddd, PS)",66,–,–,–,–,–
"TTCTCATGGTACAGGA (sugars kkddddkekekddddd, PS)",76,–,–,–,–,–
"CATTCAGAATTTCCAC (sugars k3 d5 k3 d5, PS)",94,–,–,–,–,–
